Measurements from doi:10.1101/396440v2, “Large-scale chemical-genetics yields new Mycobacterium tuberculosis inhibitor classes” (biorxiv, 2019).

Legend:
EfpA = biological target: T1, EfpA (Mycolicibacterium smegmatis, UniProt A0QVL8); experiment: ethidium bromide efflux (fluorescence) in M. smegmatis cells; assay type: cell-based
T1 construct: gene MSMEG_2619; native efflux pump in intact M. smegmatis cells; ethidium bromide efflux read-out

Mtb's efpA homolog = Mtb's efpA homolog (Mycobacterium tuberculosis, UniProt P9WJY5); conditions: high-affinity interaction lost on efpA deletion
Sequence of Mtb's efpA homolog (P9WJY5 whole entry): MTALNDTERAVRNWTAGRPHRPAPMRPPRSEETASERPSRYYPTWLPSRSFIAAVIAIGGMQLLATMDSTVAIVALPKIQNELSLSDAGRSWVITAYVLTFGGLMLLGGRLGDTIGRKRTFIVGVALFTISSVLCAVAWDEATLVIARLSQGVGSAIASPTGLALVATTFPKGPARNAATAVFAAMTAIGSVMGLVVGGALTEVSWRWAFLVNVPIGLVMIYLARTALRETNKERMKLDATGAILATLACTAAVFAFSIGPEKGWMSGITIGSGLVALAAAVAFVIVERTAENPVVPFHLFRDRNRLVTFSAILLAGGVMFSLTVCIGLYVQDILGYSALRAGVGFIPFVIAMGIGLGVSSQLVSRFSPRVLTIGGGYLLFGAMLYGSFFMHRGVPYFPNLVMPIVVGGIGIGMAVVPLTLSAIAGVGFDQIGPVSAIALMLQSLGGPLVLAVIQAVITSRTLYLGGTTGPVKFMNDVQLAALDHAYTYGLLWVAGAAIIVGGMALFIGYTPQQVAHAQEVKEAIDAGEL

Mtb DNA gyrase = biological target: T2, Mtb DNA gyrase (Mycobacterium tuberculosis, UniProt P9WG45+P9WG47); experiment: DNA supercoiling/decatenation inhibition, agarose gel; assay type: biochemical
T2 construct: gene gyrA; in vitro DNA gyrase; source details in supplement
T2 sequence (P9WG45 whole entry): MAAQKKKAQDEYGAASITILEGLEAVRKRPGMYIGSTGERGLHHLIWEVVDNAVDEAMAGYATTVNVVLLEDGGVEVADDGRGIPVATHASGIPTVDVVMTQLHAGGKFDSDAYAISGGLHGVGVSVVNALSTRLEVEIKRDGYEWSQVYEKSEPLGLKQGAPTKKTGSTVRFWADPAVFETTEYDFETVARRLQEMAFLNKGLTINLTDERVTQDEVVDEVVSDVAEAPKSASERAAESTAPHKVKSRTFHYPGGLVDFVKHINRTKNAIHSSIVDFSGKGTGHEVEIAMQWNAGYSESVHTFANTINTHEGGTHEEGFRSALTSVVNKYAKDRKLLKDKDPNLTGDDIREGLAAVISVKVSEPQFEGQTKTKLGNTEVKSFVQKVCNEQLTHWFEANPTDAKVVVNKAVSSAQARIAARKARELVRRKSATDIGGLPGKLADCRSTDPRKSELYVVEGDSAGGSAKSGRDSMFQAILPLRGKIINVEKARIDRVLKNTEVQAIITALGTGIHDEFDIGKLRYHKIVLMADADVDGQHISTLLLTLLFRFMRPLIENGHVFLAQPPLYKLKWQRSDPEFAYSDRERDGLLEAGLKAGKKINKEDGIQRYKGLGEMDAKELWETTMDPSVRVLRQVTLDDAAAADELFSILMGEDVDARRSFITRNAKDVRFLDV
T2 sequence (P9WG47 2-838): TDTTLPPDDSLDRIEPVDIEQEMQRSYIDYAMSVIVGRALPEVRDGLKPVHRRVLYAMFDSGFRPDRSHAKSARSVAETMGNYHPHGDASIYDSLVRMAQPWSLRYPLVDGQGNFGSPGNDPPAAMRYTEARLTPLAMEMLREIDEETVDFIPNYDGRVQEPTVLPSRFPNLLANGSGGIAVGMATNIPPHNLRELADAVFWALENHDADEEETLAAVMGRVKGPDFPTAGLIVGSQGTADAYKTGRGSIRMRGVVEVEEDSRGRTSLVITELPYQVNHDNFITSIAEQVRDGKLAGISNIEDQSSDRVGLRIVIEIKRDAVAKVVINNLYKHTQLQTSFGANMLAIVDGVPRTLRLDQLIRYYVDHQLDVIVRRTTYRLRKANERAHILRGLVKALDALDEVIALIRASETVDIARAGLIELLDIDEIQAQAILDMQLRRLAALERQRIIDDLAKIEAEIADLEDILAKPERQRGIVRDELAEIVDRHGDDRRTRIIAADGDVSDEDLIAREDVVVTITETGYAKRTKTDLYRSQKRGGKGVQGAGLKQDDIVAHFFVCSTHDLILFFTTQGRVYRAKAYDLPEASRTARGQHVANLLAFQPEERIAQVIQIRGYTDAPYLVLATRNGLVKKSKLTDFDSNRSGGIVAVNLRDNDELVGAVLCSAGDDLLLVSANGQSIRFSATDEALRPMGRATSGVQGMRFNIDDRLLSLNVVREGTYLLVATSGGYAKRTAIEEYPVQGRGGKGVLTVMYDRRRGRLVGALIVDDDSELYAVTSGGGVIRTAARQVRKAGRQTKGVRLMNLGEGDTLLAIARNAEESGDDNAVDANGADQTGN

CC(C)=CC1C(C(=O)Nc2ccc(Br)cn2)C1(C)C (mixture of isomers) [BRD-8000]
IC50 (EfpA): 38 µM

CC(C)=C[C@@H]1[C@@H](C(=O)Nc2cccc(Br)n2)C1(C)C [(R,R)-trans isomer of BRD-8000.2]
IC50 (EfpA): 500 µM

CC(C)=C[C@H]1[C@H](C(=O)Nc2cccc(Br)n2)C1(C)C [BRD-8000.2]
interaction with M. smegmatis efpA deletion strain complemented with Mtb efpA (Mtb's efpA homolog): This highaffinity interaction is restored by episomal complementation of Mtb’s efpA homolog | IC50 (EfpA): 15 µM

O=C1c2ccccc2-n2c1nc1ccccc1c2=O [tryptanthrin]
DNA supercoiling/decatenation inhibition, agarose gel (Mtb DNA gyrase): we validated it to be a DNA gyrase inhibitor
